# Reference: ChEMBL document CHEMBL1139920, “Synthesis and biological evaluation of diamine-based histamine H3 antagonists with serotonin reuptake inhibitor activity” (Bioorg Med Chem Lett, 2007)
# Columns and labels:
# Histamine H3 receptor [1] = target: T1, Histamine H3 receptor (Homo sapiens, UniProt Q9Y5N1); assay: Binding affinity at human histamine H3 receptor
# [2] = target: Sodium-dependent serotonin transporter (Rattus norvegicus, UniProt P31652); assay: Binding affinity at rat SERT
# [3] = target: Sodium-dependent serotonin transporter (Homo sapiens, UniProt P31645); assay: Binding affinity at human SERT
# [4] = target: T2, Sodium-dependent noradrenaline transporter (Homo sapiens, UniProt P23975); assay: Binding affinity at human noradrenaline transporter
# [5] = target: Histamine H2 receptor (Homo sapiens) (UniProt P25021); assay: Binding affinity at histamine H2 receptor at 1 uM
# Histamine H3 receptor [6] = target: T1, Histamine H3 receptor; assay: Antagonist activity at human histamine H3 receptor; assay type: functional; conditions: read-out: pA2 (converted)
# [7] = target: T2, Sodium-dependent noradrenaline transporter; assay: Binding affinity at noradrenaline transporter at 1 uM
# Sequence of Sodium-dependent serotonin transporter (Rattus norvegicus, UniProt P31652) (P31652 whole entry): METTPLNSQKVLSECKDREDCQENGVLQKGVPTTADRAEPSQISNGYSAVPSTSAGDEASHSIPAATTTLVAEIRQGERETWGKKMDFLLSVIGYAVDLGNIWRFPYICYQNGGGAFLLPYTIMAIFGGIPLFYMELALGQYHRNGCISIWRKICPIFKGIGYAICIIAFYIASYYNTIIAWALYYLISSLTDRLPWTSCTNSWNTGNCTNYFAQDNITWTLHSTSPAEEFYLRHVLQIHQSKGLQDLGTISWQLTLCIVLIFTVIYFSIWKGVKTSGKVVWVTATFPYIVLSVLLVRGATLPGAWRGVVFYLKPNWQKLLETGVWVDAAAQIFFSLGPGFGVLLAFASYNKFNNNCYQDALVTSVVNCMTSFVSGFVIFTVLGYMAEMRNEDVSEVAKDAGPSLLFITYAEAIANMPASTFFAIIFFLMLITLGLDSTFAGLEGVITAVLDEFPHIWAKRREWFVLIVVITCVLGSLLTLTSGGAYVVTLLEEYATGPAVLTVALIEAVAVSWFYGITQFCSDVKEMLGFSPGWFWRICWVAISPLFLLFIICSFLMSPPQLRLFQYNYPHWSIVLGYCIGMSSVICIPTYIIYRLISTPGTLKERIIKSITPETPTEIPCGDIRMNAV
# Sequence of Sodium-dependent serotonin transporter (Homo sapiens, UniProt P31645) (P31645 whole entry): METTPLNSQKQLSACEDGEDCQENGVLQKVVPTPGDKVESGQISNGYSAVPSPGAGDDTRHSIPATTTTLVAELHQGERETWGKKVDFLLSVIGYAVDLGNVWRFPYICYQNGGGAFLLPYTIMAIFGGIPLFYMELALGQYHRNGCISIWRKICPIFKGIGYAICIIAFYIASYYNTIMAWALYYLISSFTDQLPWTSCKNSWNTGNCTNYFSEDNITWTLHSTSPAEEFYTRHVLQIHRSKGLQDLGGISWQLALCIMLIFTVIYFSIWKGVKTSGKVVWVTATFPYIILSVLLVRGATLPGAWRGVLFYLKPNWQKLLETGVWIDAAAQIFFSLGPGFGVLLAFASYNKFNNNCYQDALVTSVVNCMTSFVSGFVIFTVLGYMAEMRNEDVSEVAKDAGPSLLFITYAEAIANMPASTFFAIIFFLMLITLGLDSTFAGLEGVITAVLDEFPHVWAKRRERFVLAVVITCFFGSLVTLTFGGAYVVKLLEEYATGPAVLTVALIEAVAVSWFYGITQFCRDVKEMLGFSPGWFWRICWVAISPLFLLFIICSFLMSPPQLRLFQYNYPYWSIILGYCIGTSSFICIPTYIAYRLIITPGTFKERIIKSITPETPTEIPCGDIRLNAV
# T1 sequence (Q9Y5N1 whole entry): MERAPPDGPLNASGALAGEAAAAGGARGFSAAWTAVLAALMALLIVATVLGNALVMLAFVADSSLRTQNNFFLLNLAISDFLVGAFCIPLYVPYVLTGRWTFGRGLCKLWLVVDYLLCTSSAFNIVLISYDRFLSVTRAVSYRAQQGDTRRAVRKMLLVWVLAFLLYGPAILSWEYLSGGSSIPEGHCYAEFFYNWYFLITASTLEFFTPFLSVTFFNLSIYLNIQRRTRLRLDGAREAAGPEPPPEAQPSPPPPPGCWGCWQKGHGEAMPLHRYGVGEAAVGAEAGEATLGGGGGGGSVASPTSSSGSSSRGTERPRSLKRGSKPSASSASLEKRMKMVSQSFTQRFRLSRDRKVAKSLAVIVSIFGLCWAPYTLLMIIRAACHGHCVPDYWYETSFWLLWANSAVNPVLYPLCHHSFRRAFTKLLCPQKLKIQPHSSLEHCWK
# T2 sequence (P23975 whole entry): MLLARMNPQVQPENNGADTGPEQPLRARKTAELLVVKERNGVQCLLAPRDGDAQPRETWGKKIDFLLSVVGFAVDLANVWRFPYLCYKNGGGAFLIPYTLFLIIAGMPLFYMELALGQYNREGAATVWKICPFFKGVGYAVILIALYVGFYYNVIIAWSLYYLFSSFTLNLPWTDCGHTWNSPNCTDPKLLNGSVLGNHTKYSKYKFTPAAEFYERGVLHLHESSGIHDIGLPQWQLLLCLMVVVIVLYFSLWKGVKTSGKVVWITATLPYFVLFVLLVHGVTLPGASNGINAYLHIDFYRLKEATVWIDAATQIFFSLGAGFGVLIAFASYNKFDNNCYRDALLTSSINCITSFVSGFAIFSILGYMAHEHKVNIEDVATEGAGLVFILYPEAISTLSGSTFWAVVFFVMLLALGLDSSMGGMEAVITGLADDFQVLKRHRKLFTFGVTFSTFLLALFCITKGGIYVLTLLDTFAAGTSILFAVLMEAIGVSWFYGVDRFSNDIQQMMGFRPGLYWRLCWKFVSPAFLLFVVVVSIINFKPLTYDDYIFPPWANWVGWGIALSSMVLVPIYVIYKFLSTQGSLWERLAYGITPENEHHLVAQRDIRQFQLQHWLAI
# Sequence of Histamine H2 receptor (Homo sapiens) (P25021 whole entry): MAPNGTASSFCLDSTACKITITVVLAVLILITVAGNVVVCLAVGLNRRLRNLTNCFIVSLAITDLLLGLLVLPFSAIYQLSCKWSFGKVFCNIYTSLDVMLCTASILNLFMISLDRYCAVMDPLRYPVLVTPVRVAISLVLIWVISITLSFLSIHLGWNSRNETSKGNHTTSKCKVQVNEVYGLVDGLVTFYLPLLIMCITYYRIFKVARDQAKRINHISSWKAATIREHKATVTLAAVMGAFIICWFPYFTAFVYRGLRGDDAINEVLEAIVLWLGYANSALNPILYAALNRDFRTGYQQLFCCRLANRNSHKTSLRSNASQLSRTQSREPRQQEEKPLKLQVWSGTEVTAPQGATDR
SMILES,Ki (Histamine H3 receptor [1]) [nM],Ki [2] [nM],further results
CN(C)CCC(Oc1ccc(C(F)(F)F)cc1)c1ccc(OCCCN2CCCCC2)cc1 (stereo not given),2.7,10,
CN(C)CCC(Oc1ccc([N+](=O)[O-])cc1)c1ccc(OCCCN2CCCCC2)cc1 (stereo not given),,3.7,Ki [3]: 8.7 nM
CN(C)CCC(Oc1ccc(Cl)c(Cl)c1)c1ccc(OCCCN2CCCCC2)cc1 (stereo in doubt; 39),,7,
CN(C)CCC(Oc1ccc(Br)cc1)c1ccc(OCCCN2CCCCC2)cc1 (stereo not given),,,Ki [3]: 9 nM
CC(C)N1CCN(C(=O)c2ccc(C(CCN(C)C)Oc3ccccc3)cc2)CC1 (stereo not given),0.8,63,
CN(C)CCC(Oc1cccc(Br)c1)c1ccc(OCCCN2CCCCC2)cc1 (stereo not given),,2.3,
COc1cccc(OC(CCN(C)C)c2ccc(OCCCN3CCCCC3)cc2)c1 (stereo not given),,2,
CN(C)CCC(Oc1ccc(C(F)(F)F)cc1)c1ccc(C#CCCN2CCCCC2)cc1 (stereo not given),5,33,
COc1ccc(OC(CCN(C)C)c2ccc(OCCCN3CCCCC3)cc2)cc1 (stereo not given),1,,
CN(C)CCC(Oc1ccccc1)c1cccc(OCCCN2CCCCC2)c1 (stereo not given),3.3,,
CC(C)N1CCN(C(=O)c2ccc(C(CCN(C)C)Oc3ccc(C(F)(F)F)cc3)cc2)CC1 (stereo not given),2.3,,
CN(C)CCC(Oc1cccc(OCCCN2CCCCC2)c1)c1ccccc1 (stereo not given),,,Ki [3]: 1480 nM
CN(C)CCC(Oc1ccc(Cl)cc1)c1ccc(OCCCN2CCCCC2)cc1 (stereo not given),,2.3,
CN(C)CCC(Oc1ccc(Cl)c(Cl)c1)c1ccc(OCCCN2CCCCC2)cc1 (stereo in doubt; 40),,7.7,
CN(C)CCC(Oc1ccc(C(F)(F)F)cc1)c1ccccc1 (stereo not given),6630,7.7,Ki [3]: 8.3 nM
CN(C)CCC(Oc1cccc(Cl)c1)c1ccc(OCCCN2CCCCC2)cc1 (stereo in doubt; 37),0.9,,Ki [3]: 2.7 nM
Cc1ccc(OC(CCN(C)C)c2ccc(OCCCN3CCCCC3)cc2)cc1 (stereo not given),0.7,,
CN(C)CCC(Oc1ccccc1)c1ccc(C#CCCN2CCCCC2)cc1 (stereo not given),1.3,6,
CC(C)N1CCC(Oc2ccc(C(CCN(C)C)Oc3ccccc3)cc2)CC1 (stereo not given),,39,
CN(C)CCC(Oc1ccc(C#N)cc1)c1ccc(OCCCN2CCCCC2)cc1 (stereo not given),,7.7,
CN(C)CCC(Oc1ccccc1)c1ccc(OCCCN2CCCCC2)cc1 (stereo not given),0.6,,Ki [4]: 201 nM; Activity [5]: 66%; Kb (Histamine H3 receptor [6]): 0.501 nM; Activity [7]: 73%
CN(C)CCC(Oc1cccc(Cl)c1)c1ccc(OCCCN2CCCCC2)cc1 (stereo in doubt; 38),0.9,,Ki [3]: 21 nM
